Data reported in PMC10533412, “Phosphoantigens glue butyrophilin 3A1 and 2A1 to activate Vγ9Vδ2 T cells” (Nature, 2023).
Where two headings read alike, the source gives them in different places.

Legend:
[1] = molecular target: VpBTN3 BFI (Vicugna pacos, UniProt A0A345DF50); assay: ITC: pAg binding to VpBTN3 BFI; parameters: species or system alpaca (Vicugna pacos); conditions: ITC; read-out: KD, pAg binding to VpBTN3 intracellular domain (BFI)
Procedure: (§1) ITC experiments were performed using the MicroCal PEAQ-ITC instrument (GE Healthcare) at 25 °C. We used an initial injection of 0.4 μl followed by 19 injections (2 µl each) at 150 s time intervals. ITC binding fits were calculated using MicroCal Analysis software. The samples were prepared using a buffer (20 mM HEPES pH 7.5, 150 mM NaCl).
(§2) ITC experiments of HMBPP, DMAPP or IPP binding to the VpBTN3 BFI (or the preconditioned VpBTN3 BFI and VpBTN2 BFI complex) and VpBTN2 BFI (or VpBTN1 BFI) binding to VpBTN3 BFI in the presence of HMBPP, DMAPP or IPP were performed according to the same procedures as for the BTN3A1 B30.2 and BTN2A1 B30.2.

[2] = molecular target: T1, BTN2A1 B30.2–BTN3A1 B30.2 (Homo sapiens, UniProt O00481+Q7KYR7); assay: SEC–MALS of BTN2A1 B30.2–BTN3A1 B30.2 with or without HMBPP; conditions: listed as HMBPP
T1 construct: The BTN3A1 B30.2 domain was expressed and purified as described previously; 6xHis; made in house; host or cells: Escherichia coli BL21 (DE3) for BTN2A1 B30.2
Procedure: SEC–MALS experiments were performed using the Wyatt Dawn Heleos II multiangle light-scattering detector (Wyatt Technology) coupled to an AKTA Purifier UPC10 FPLC protein purification system and the Superdex 200 size-exclusion column (GE Healthcare). Protein molecular masses of the individual peaks observed in the size-exclusion chromatograms were analysed by static light scattering in conjunction with their corresponding refractive indices, using an online refractometer connected downstream of the static light scattering detector (Wyatt Optilab rEX). The proteins were prepared at 5 mg ml^−1 in a buffer (20 mM HEPES pH 7.5, 150 mM NaCl). HMBPP was prepared in 0.5 mM. The experiments were performed with a running buffer (20 mM HEPES pH 7.5, 150 mM NaCl) at a flow rate of 0.5 ml min^−1. A standard value of the refractive index, dn/dc = 0.185 ml g^−1, was used for all proteins.

[3] = molecular target: BTN2A1 B30.2 domain (Homo sapiens, UniProt Q7KYR7); conditions: ITC
Procedure: as §1

[4] = molecular target: T1, BTN2A1 B30.2–BTN3A1 B30.2; assay: Sedimentation velocity AUC of BTN2A1 B30.2 and BTN3A1 B30.2 with or without HMBPP; conditions: SV-AUC
Procedure: Sedimentation experiments were performed at 20 °C and 45,000 rpm on the Beckman Coulter ProteomeLab XL-I analytical ultracentrifuge according to standard protocols. All of the samples were prepared in the buffer (20 mM HEPES pH 7.5, 150 mM NaCl) and inserted into 12 mm (or 3 mm) Epon centerpieces.

[5] = tested on: MIA PaCa-2 cells; assay: Cell killing assay: cytotoxicity of Vγ9Vδ2 T cells towards pAg- or zoledronate-treated MIA PaCa-2 cells (luciferase); assay type: cell-based, human; conditions: for Bottom (best-fit value) / Top (best-fit value) / Span (best-fit value): Fig. 1b; for Bottom (best-fit value) / Top (best-fit value): log(agonist) vs. response (three parameters); for EC50: Homo sapiens
Procedure: MIA PaCa-2 cells were infected with lentivirus bearing luciferase transgene. Luciferase-positive cells were plated at 5.0 × 10^3 cells per well in 384-well plates 1 day before transfection. All plasmids were transfected into BTN2A^−/− MIA PaCa-2 (BTN2A1/BTN2A2 KO) cells using Lipofectamine 2000 reagent. […] Stable-lite luciferase (Vazyme) was added to each well and the luciferase signal was immediately measured by using the PerkinElmer EnVision microplate reader.
Percentage of lysis was calculated using the following equation: percentage of specific lysis = (maximum luciferase − experimental luciferase)/maximum luciferase × 100.

[6] = molecular target: T2, BTN3A3(R351H) B30.2 (Homo sapiens, UniProt O00478); assay: ITC: HMBPP binding to BTN3A3(R351H) B30.2
T2 construct: the B30.2 domain of this active mutant (BTN3A3(R351H))
Procedure: (§3) ITC binding fits were calculated using MicroCal Analysis software.

[7] = molecular target: T3, BTN2A1 B30.2–BTN3A1 B30.2 (Homo sapiens, UniProt O00481+Q7KYR7, R449A/R469A); assay: ITC: BTN2A1 B30.2 (and mutants) binding to BTN3A1 B30.2 in the presence of pAg
T3 construct: The BTN3A1 B30.2 domain was expressed and purified as described previously; 6xHis; made in house; host or cells: Escherichia coli BL21 (DE3) for BTN2A1 B30.2
Procedure: as §3
For the experiments testing the binding of BTN2A1/BTN2A2 B30.2 domain (including their mutants) to the BTN3A1 B30.2 domain with or without HMBPP, BTN3A1 B30.2 (100 µM) and HMBPP (300 µM) were incubated in the buffer at a 1:3 ratio and loaded into the sample cell, and the injection syringe was filled with the buffer containing 1 mM BTN2A1/BTN2A2 B30.2 (including their mutants).

[8] = tested on: VpBTN1 BFI–VpBTN3 BFI; assay: ITC: VpBTN1 BFI binding to VpBTN3 BFI in the presence of pAg; parameters: species or system alpaca (Vicugna pacos)
Procedure: as §1, §2

[9] = tested on: Vγ9Vδ2 T cells; conditions: cited from earlier work

T1 sequence (O00481 322-513 limits assumed): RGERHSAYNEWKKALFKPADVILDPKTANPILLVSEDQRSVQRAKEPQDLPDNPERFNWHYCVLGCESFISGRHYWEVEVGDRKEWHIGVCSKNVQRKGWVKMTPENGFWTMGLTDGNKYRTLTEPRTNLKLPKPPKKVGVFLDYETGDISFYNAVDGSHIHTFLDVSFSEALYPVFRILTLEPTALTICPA
T1 sequence (Q7KYR7 316-527 limits assumed): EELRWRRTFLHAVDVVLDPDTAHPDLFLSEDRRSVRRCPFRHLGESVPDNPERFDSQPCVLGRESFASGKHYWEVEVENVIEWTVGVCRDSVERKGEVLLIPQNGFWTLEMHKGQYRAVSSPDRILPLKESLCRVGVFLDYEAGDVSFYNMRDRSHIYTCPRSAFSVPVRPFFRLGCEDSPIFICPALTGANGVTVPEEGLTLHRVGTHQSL
T2 sequence (O00478 322-518 R381H): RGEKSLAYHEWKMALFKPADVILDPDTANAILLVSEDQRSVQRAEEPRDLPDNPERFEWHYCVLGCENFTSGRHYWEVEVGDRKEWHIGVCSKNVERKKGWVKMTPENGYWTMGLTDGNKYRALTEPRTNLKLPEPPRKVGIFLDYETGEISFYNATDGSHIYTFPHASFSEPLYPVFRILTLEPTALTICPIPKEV
Sequence of BTN2A1 B30.2 domain (Q7KYR7 316-527 limits assumed): as the sequence (Q7KYR7 316-527 limits assumed) above
T3 sequence (O00481 322-513): as the sequence (O00481 322-513 limits assumed) above
T3 sequence (Q7KYR7 316-527 R449A/R469A): as the sequence (Q7KYR7 316-527 limits assumed) above, with R134A, R154A counted along it
Sequence of VpBTN3 BFI (A0A345DF50 entry or part of it): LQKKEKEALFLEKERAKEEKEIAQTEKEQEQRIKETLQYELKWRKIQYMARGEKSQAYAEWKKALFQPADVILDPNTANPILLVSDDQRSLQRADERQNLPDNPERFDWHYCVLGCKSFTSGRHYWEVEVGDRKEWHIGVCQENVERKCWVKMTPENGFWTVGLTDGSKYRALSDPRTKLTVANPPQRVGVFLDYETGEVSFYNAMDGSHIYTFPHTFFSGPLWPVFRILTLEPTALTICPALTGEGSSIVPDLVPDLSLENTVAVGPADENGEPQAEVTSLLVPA

C/C(=C\COP(=O)(O)OP(=O)(O)O)CO [Compound 1, (E)-4-hydroxy-3-methylbut-2-en-1-yl diphosphate]
Kd [1]: 1.37 µM
Molecular mass of BTN2A1 B30.2–BTN3A1 B30.2 oligomer formed on addition of HMBPP (trimer) [2]: 78.7 kDa
HMBPP binding to BTN2A1 B30.2 domain [3]: does not bind
Molecular mass of BTN2A1 B30.2–BTN3A1 B30.2 oligomer formed on addition of HMBPP (tetramer) [4]: 94.9 kDa
Bottom (best-fit value) ([5]; 2A1 KO cells): 2.135
Top (best-fit value) ([5]; 2A1 KO cells): 50.59
Span (best-fit value) ([5]; 2A1 KO cells, three-parameter fit): 48.45
Bottom (best-fit value) ([5]; 2A1 WT cells): 19.47
Top (best-fit value) ([5]; 2A1 WT cells): 76.92
Span (best-fit value) ([5]; 2A1 WT cells, three-parameter fit): 57.45
EC50 ([5]; MIA PaCa-2, BTN2A1 WT MIA PaCa-2 cells, read-out: EC50 for HMBPP-mediated MIA PaCa-2 cell killing): 6.5e-09 M
EC50 ([5]; MIA PaCa-2, BTN2A1−/− (KO) MIA PaCa-2 cells, read-out: EC50 for HMBPP-mediated MIA PaCa-2 cell killing): 3.6e-05 M
EC50 ([5]; MIA PaCa-2, Fig. 1b, 2A1 KO cells, log(Concentration)/M, three-parameter fit, read-out: LogEC50 (converted)): 3.6e-05 M
EC50 ([5]; MIA PaCa-2, Fig. 1b, 2A1 KO cells, three-parameter fit, read-out: EC50): 3.6e-05 M
EC50 ([5]; MIA PaCa-2, Fig. 1b, 2A1 WT cells, log(Concentration)/M, three-parameter fit, read-out: LogEC50 (converted)): 6.5e-09 M
EC50 ([5]; MIA PaCa-2, Fig. 1b, 2A1 WT cells, three-parameter fit, read-out: EC50): 6.5e-09 M
EC50 ([5]; MIA PaCa-2, Supplementary Table 4, read-out: EC50 (M) for MIA PaCa-2 cell lysis mediated by HMBPP analogs and Vγ9Vδ2 T cells): 3.87e-09 M
Kd [6]: 10.9 µM
Binding of 2A1 B30.2 R449A/R469A to 3A1 B30.2 in the presence of HMBPP [7]: does not bind
VpBTN1 binding to VpBTN3 in the presence of pAg [8]: does not bind
EC50 for Vγ9Vδ2 T cell activation [9]: picomolar range
